Assay results reported in PubChem BioAssay (NCI).
“And” between values parts separate entries of the source, which are not always exact repeats. Identical values can stand only once.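 Method: 48-hour compound exposure of cells in 96-well plates, five concentrations, linear interpolation of endpoints. The concentration for 50% growth inhibition is given as GI50. The concentration for full growth arrest is given as TGI.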

What was measured:
Experiment in all cases: DTP human tumour cell line panel, 48 h
TK-10 renal = tested on: TK-10 renal
SN12C renal = tested on: SN12C renal
M19-MEL melanoma = tested on: M19-MEL melanoma
HCT-116 colon = tested on: HCT-116 colon
UACC-62 melanoma = tested on: UACC-62 melanoma
CCRF-CEM leukemia = tested on: CCRF-CEM leukemia
DLD-1 colon = tested on: DLD-1 colon
OVCAR-3 ovarian = tested on: OVCAR-3 ovarian
PC-3 prostate = tested on: PC-3 prostate
MDA-MB-435 = tested on: MDA-MB-435

## COc1nc2c(c(O)c(C)c(=O)n2OC2OC(COC(C)=O)C(OC(C)=O)C(OC(C)=O)C2OC(C)=O)c(=O)n1C (centres undefined)
TK-10 renal
  TGI: > 100 µM
SN12C renal
  TGI: > 100 µM
M19-MEL melanoma
  TGI: > 100 µM
HCT-116 colon
  TGI: > 100 µM
UACC-62 melanoma
  TGI: > 100 µM
CCRF-CEM leukemia
  TGI: > 100 µM
DLD-1 colon
  TGI: > 100 µM

## CC[P+]1(CC)CCCC1
OVCAR-3 ovarian
  TGI: > 100 µM
TK-10 renal
  TGI: > 100 µM
SN12C renal
  TGI: > 100 µM
M19-MEL melanoma
  TGI: > 100 µM
UACC-62 melanoma
  TGI: > 100 µM
CCRF-CEM leukemia
  TGI: > 100 µM
DLD-1 colon
  TGI: > 100 µM

## CC1=C(C(=O)CC(=O)C(=O)NC2C3CC4CC(C3)CC2C4)Sc2ccccc2N1 (centres undefined)
OVCAR-3 ovarian
  TGI: > 100 µM
TK-10 renal
  TGI: > 100 µM
SN12C renal
  TGI: > 100 µM
M19-MEL melanoma
  TGI: > 100 µM
HCT-116 colon
  TGI: > 100 µM
UACC-62 melanoma
  TGI: > 100 µM
CCRF-CEM leukemia
  TGI: > 87.7 µM
DLD-1 colon
  TGI: > 100 µM

## Cc1cc(NC(=O)NC(=O)c2ccccc2N(C)C)ccc1Oc1ncc(Br)cn1
OVCAR-3 ovarian
  TGI: 11.1 µM
PC-3 prostate
  TGI: > 63.1 µM
TK-10 renal
  GI50: 0.984 µM
  TGI: > 68.1 µM
SN12C renal
  GI50: 0.578 µM
  TGI: > 100 µM
M19-MEL melanoma
  GI50: 2.51 µM
  TGI: > 100 µM
HCT-116 colon
  GI50: 0.389 µM
  TGI: 50.2 µM
UACC-62 melanoma
  TGI: > 100 µM
CCRF-CEM leukemia
  TGI: 3.5 µM and 11.8 µM
DLD-1 colon
  GI50: 0.527 µM
  TGI: > 100 µM
MDA-MB-435
  TGI: 2.84 µM

## Cc1nnc(N=Nc2c(O)[nH]c3ccccc23)n1N
OVCAR-3 ovarian
  TGI: > 100 µM
TK-10 renal
  TGI: > 100 µM
SN12C renal
  TGI: > 100 µM
M19-MEL melanoma
  TGI: > 100 µM
HCT-116 colon
  TGI: > 100 µM
UACC-62 melanoma
  TGI: > 100 µM
CCRF-CEM leukemia
  TGI: > 100 µM
DLD-1 colon
  TGI: > 100 µM

## NC(=O)c1c[se]c(C2OC(COP(=O)(O)CP(=O)(O)OCC3OC(n4cnc5c(N)ncnc54)C(O)C3O)C(O)C2O)n1 (centres undefined)
OVCAR-3 ovarian
  TGI: > 100 µM
SN12C renal
  TGI: > 100 µM
M19-MEL melanoma
  TGI: > 100 µM
HCT-116 colon
  TGI: > 100 µM
CCRF-CEM leukemia
  TGI: > 100 µM
DLD-1 colon
  TGI: > 100 µM

## COc1ccc(C2NCCc3c2[nH]c2ccccc32)cc1 (centres undefined)
OVCAR-3 ovarian
  TGI: > 100 µM
TK-10 renal
  TGI: > 100 µM
SN12C renal
  TGI: > 100 µM
M19-MEL melanoma
  TGI: > 100 µM
HCT-116 colon
  TGI: > 100 µM
UACC-62 melanoma
  TGI: > 100 µM
CCRF-CEM leukemia
  TGI: > 100 µM
DLD-1 colon
  TGI: > 100 µM

## O=C1C(c2ccccc2)=C(c2ccccc2)[C@H](c2ccccc2)[C@]1(Cc1nnn(-c2ccc([N+](=O)[O-])cc2)c1N1CCOCC1)c1ccccc1
OVCAR-3 ovarian
  TGI: > 37.5 µM
TK-10 renal
  TGI: > 37.5 µM
SN12C renal
  TGI: > 37.5 µM
M19-MEL melanoma
  TGI: > 37.5 µM
HCT-116 colon
  TGI: > 37.5 µM
UACC-62 melanoma
  TGI: > 37.5 µM
CCRF-CEM leukemia
  TGI: > 37.5 µM
DLD-1 colon
  TGI: > 37.5 µM

## COc1ccc(CC2=NCCc3cc(OC)c(OC)cc32)cc1Br
TK-10 renal
  TGI: > 100 µM
SN12C renal
  TGI: > 100 µM
M19-MEL melanoma
  TGI: > 100 µM
UACC-62 melanoma
  TGI: 36.6 µM
CCRF-CEM leukemia
  TGI: > 100 µM
DLD-1 colon
  TGI: > 100 µM

## COC(=O)C1(F)C(=O)NC(=O)NC1OC (centres undefined)
OVCAR-3 ovarian
  TGI: > 100 µM
TK-10 renal
  TGI: > 100 µM
SN12C renal
  TGI: > 100 µM
M19-MEL melanoma
  TGI: > 100 µM
HCT-116 colon
  TGI: 94.7 µM
UACC-62 melanoma
  TGI: > 100 µM
CCRF-CEM leukemia
  TGI: > 100 µM
DLD-1 colon
  TGI: > 100 µM

## CC[C@@]1(O)C(=O)OCc2c1cc1n(c2=O)Cc2cc3c(N)cccc3nc2-1
OVCAR-3 ovarian
  TGI: 1.42 µM
PC-3 prostate
  TGI: > 100 µM
TK-10 renal
  TGI: 38.2 µM
SN12C renal
  GI50: 0.00812 µM
  TGI: > 23.3 µM
M19-MEL melanoma
  TGI: 0.654 µM
HCT-116 colon
  GI50: 0.00979 µM and 0.0559 µM
  TGI: 0.737 µM
UACC-62 melanoma
  GI50: 0.00361 µM
  TGI: 0.033 µM and 0.0638 µM
CCRF-CEM leukemia
  GI50: 0.00158 µM
DLD-1 colon
  TGI: > 51.7 µM
MDA-MB-435
  TGI: 2.16 µM

## CCCCCCCCCC(=O)Oc1cccc2onc(C)c12
OVCAR-3 ovarian
  TGI: > 100 µM
TK-10 renal
  TGI: > 100 µM
SN12C renal
  TGI: > 100 µM
M19-MEL melanoma
  TGI: > 100 µM
HCT-116 colon
  TGI: > 100 µM
UACC-62 melanoma
  TGI: > 100 µM
CCRF-CEM leukemia
  TGI: > 100 µM
DLD-1 colon
  TGI: > 100 µM

## O=[N+]([O-])C1C2C=CC(C2)[C@H]1c1ccc(Cl)cc1Cl (some centres undefined)
TK-10 renal
  TGI: > 100 µM
SN12C renal
  TGI: > 100 µM
M19-MEL melanoma
  TGI: > 100 µM
HCT-116 colon
  TGI: > 100 µM
CCRF-CEM leukemia
  TGI: > 100 µM
DLD-1 colon
  TGI: > 100 µM

## NS(=O)(=O)c1ccc(NC(=O)c2cccn3c(=O)c4ccccc4nc23)cc1
OVCAR-3 ovarian
  TGI: > 100 µM
TK-10 renal
  TGI: > 100 µM
SN12C renal
  TGI: > 100 µM
M19-MEL melanoma
  TGI: > 100 µM
HCT-116 colon
  TGI: > 100 µM
UACC-62 melanoma
  TGI: > 100 µM
CCRF-CEM leukemia
  TGI: > 100 µM
DLD-1 colon
  TGI: > 100 µM

## COc1cc2cccc(N=Cc3c(Br)ccc(OC)c3OC(C)C)c2cc1OC
OVCAR-3 ovarian
  TGI: > 100 µM
TK-10 renal
  TGI: > 100 µM
SN12C renal
  TGI: > 100 µM
M19-MEL melanoma
  TGI: > 100 µM
HCT-116 colon
  TGI: 96 µM
UACC-62 melanoma
  TGI: > 100 µM
CCRF-CEM leukemia
  TGI: 90.4 µM
DLD-1 colon
  TGI: 82.2 µM

## NC(=O)C(=O)n1ncc(Cl)c(Cl)c1=O
OVCAR-3 ovarian
  TGI: 50.8 µM
TK-10 renal
  TGI: 50.8 µM
SN12C renal
  TGI: 40.8 µM
M19-MEL melanoma
  TGI: > 65.3 µM
HCT-116 colon
  TGI: 55.3 µM
UACC-62 melanoma
  TGI: 54.4 µM
CCRF-CEM leukemia
  TGI: 26.1 µM
DLD-1 colon
  TGI: 47.7 µM
MDA-MB-435
  TGI: > 100 µM

## CC(C)(CO)N=Cc1ccccc1[O-].CC(C)(CO)N=Cc1ccccc1[O-].[Co+2]
OVCAR-3 ovarian
  GI50: 36.3 µM
  TGI: > 100 µM
PC-3 prostate
  GI50: 49.3 µM
  TGI: > 100 µM
TK-10 renal
  GI50: 81.3 µM
  TGI: > 100 µM
SN12C renal
  GI50: > 96.6 µM
  TGI: > 100 µM
M19-MEL melanoma
  GI50: > 73.8 µM
  TGI: > 100 µM
HCT-116 colon
  GI50: 69.8 µM
  TGI: > 100 µM
UACC-62 melanoma
  GI50: 24.9 µM
  TGI: > 85.3 µM
CCRF-CEM leukemia
  GI50: 5.86 µM
  TGI: 68.2 µM
DLD-1 colon
  GI50: 26.6 µM
  TGI: > 100 µM
MDA-MB-435
  GI50: 38.4 µM
  TGI: > 100 µM

## C=CC1=CC(C)C[C@]1(O)C(=O)OC (some centres undefined)
OVCAR-3 ovarian
  GI50: > 100 µM
TK-10 renal
  GI50: > 100 µM
SN12C renal
  GI50: > 100 µM
M19-MEL melanoma
  GI50: > 100 µM
HCT-116 colon
  GI50: > 100 µM
UACC-62 melanoma
  GI50: > 100 µM
CCRF-CEM leukemia
  GI50: > 100 µM
DLD-1 colon
  GI50: > 100 µM

## C/C(=N/NC(=O)CC(=O)N(C(=O)c1ccccc1Cl)c1ccc(C)cc1)c1cc2ccccc2oc1=O
OVCAR-3 ovarian
  TGI: > 100 µM
TK-10 renal
  TGI: > 100 µM
SN12C renal
  TGI: > 100 µM
M19-MEL melanoma
  TGI: > 100 µM
HCT-116 colon
  TGI: > 100 µM
UACC-62 melanoma
  TGI: > 100 µM
CCRF-CEM leukemia
  TGI: > 100 µM
DLD-1 colon
  TGI: > 100 µM

## O=C(O)[C@@H]1CCCC[C@@H]1C(=O)N(C1CCCCC1)C1CCCCC1
OVCAR-3 ovarian
  TGI: > 100 µM
TK-10 renal
  TGI: > 100 µM
SN12C renal
  TGI: > 100 µM
M19-MEL melanoma
  TGI: > 100 µM
HCT-116 colon
  TGI: > 100 µM
UACC-62 melanoma
  TGI: > 100 µM
CCRF-CEM leukemia
  TGI: > 100 µM
DLD-1 colon
  TGI: > 100 µM

## CC(C)(C)c1cc(CCC(=O)Nc2ccc(Cl)cc2Cl)nc(N)n1
OVCAR-3 ovarian
  TGI: > 100 µM
SN12C renal
  TGI: > 100 µM
M19-MEL melanoma
  TGI: > 100 µM
HCT-116 colon
  TGI: > 100 µM
UACC-62 melanoma
  TGI: > 100 µM
CCRF-CEM leukemia
  TGI: > 100 µM
DLD-1 colon
  TGI: > 100 µM

## COc1ccc2[nH]c3c(=O)[nH]ncc3c2c1
OVCAR-3 ovarian
  TGI: > 100 µM
TK-10 renal
  TGI: > 100 µM
M19-MEL melanoma
  TGI: > 100 µM
HCT-116 colon
  TGI: > 100 µM
UACC-62 melanoma
  TGI: > 100 µM
CCRF-CEM leukemia
  TGI: > 100 µM
DLD-1 colon
  TGI: > 100 µM

## CCOC(=O)C[C@@]12CCCNC1(C)CCc1ccccc12 (some centres undefined)
OVCAR-3 ovarian
  TGI: > 100 µM
TK-10 renal
  TGI: > 100 µM
SN12C renal
  TGI: > 100 µM
M19-MEL melanoma
  TGI: > 100 µM
HCT-116 colon
  TGI: > 100 µM
UACC-62 melanoma
  TGI: > 100 µM
CCRF-CEM leukemia
  TGI: > 100 µM
DLD-1 colon
  TGI: > 100 µM
